How the values were obtained:
[1] = tested on: brain-derived cells (NE-4C, neurons, astrocytes, C6, U87, U251, MZ-54); assay: MTT assay, summary over brain-derived cells; type: cell-based; details: 48 h, read-out: IC50 (48 h) values, range over brain-derived cells
Method: Non-GBM cells (5 × 10^4 cells/mL, 100 µL/well) were grown in 96-well plates for 24 h. Then, they were treated with various concentrations of the test compounds or vehicle (DMSO, or EtOH) for 72 h at 37 °C. After the addition of 12.5 µL of a 0.5% MTT solution in PBS, the cells were incubated for 3 h at 37 °C so that the water-soluble MTT could be converted to formazan crystals. Then, the plates were centrifuged (300× g, 5 min, 4 °C), the medium withdrawn, and the formazan dissolved in 25 µL of DMSO containing 10% sodium dodecylsulfate (SDS) and 0.6% acetic acid for at least 2 h at 37 °C. In the case of the HL60 cells, after 2 h, the precipitate of formazan crystals was redissolved in a 10% solution of SDS in DMSO containing 0.6% acetic acid.
Adherently grown GBM cells were seeded at 5 × 10^4 cells/mL and floating spheres at 8 × 10^4 cells/mL in 100 µL/well and incubated as above for 48 or 72 h at 37 °C. Afterward, 10 µL of a 5 mg/mL MTT solution in PBS was added to the cells for 3 h at 37 °C. Then, the spheres were centrifuged shortly to collect the cells on the bottom of the plate, and the medium was removed by careful pipetting for both adherently grown and floating sphere GBM cultures. […] The absorbance of formazan (λ = 570 nm), and background (λ = 630 nm) was measured with a microplate reader (Tecan Spark, Tecan Deutschland GmbH, Crailsheim, Germany).

embryonal neuronal cells = assay: Long-term development of embryonal neuronal cell cultures; type: cell-based, mouse; details: 1 µM, 3, 6 or 8 days
Method: NE-4C cells derived from the anterior brain vesicles of p53-deficient 9-day-old mouse embryos were maintained in Minimum Essential Medium (MEM; Sigma Aldrich, Taufkirchen, Germany) supplemented with 5% fetal calf serum (FCS; Invitrogen-Gibco, Carlsbad, CA, USA), 4 mM glutamine (Sigma-Aldrich, Taufkirchen, Germany) and 40 ug/mL gentamycin (Chinoin, Budapest, Hungary). For maintenance, subconfluent cultures were regularly split by trypsinization (0.05 w/v% trypsin in PBS) into poly-L-lysine-coated Petri dishes. Primary astrocytes were isolated from whole brains of neonatal (P0-P3) mice, as described earlier. In brief, meninges were removed, and the tissue pieces were subjected to enzymatic dissociation, using 0.05% w/v trypsin and 0.05% w/v DNase for 10 min at room temperature. The cells were plated onto poly-L-lysine coated plastic surfaces and grown in MEM supplemented with 10% fetal calf serum, 4 mM glutamine and 40 ug/mL gentamycin. Primary neuronal cultures were prepared from embryonic (E15–E16) mouse (CD1) forebrains, as described earlier. In brief, cell suspensions were prepared by mechanical dissociation over a nylon mesh with a pore diameter of 40–42 μm. The cells were seeded at 10^5 cells/cm^2 density onto PLL-coated surfaces. The cultures were maintained in MEM supplemented with 5% FCS, 4 mM glutamine, 40 µg/mL gentamicin and 2.5 μg/mL amphotericin B (Sigma). […]

[2] = Reactivity test with glutathione (enone absorption); type: physicochemical; details: 200 µM compound, glutathione in PBS, 2 h, rt
Method: In a cell-free activity assay, the reaction of 1 and 2 with glutathione was measured by the decreasing absorption at 340 nm (enone group). Then, 2 µL of the substances (10 mM in DMSO) was mixed with 98 µL glutathione solution ([…] in PBS) in a 96-well plate. The absorption was measured at 340 nm every 30 s for 2 h at rt (Tecan F200). All experiments were performed at least four times.
Figure 1 Time-resolved measurement of the absorption at 340 nm (enone group) of 200 µM 1, 2 or solvent (DMSO) mixed with 6.5 mM glutathione in phosphate-buffered saline (PBS). Data are means ± SD of at least four independent measurements every 30 s.

[3] = tested on: retinoid-responsive elements (RARE); assay: RA reporter assay, F9 RARE-lacZ reporter cells; type: cell-based; details: 0.3-5.0 µM, 20 h
From the text: More typical of retinoic acid is its contribution to cell differentiation during vertebrate embryonic development by interacting with nuclear receptors, which bind to specific retinoid-responsive elements (RARE) within the promoters of subordinate genes, activating their transcription. To verify that retinoate 2 also binds to RARE, we used a reporter assay with F9 teratocarcinoma cells featuring a RARE located within the cis-acting regulatory sequences of the human retinoic acid receptor alpha gene and immediately upstream of the E. coli lacZ genes, which thus acquire retinoid responsivity. LacZ expression in cells treated with various concentrations of 2 was then quantitated by densitometric analysis of β-galactosidase activity visualized by X-Gal staining.
The F9 embryonal carcinoma cell line, stably transfected with the 1.8 kb promoter sequence of RARb2 coupled to the lacZ gene, was used to measure active retinoids. The assay is appropriate for detection of all-trans RA but is able to detect other retinoid isomers as well. The F9 reporter cells were maintained in 10% FCS containing DMEM in the presence of 400 ug/mL G418. A day before the assay, F9 cell were seeded onto 24-well plates (100,000 cell/well). The cells were than treated with various concentrations of 2. […]

Row | Compound | IC50 [1] [nM] | development of neuronal cells (embryonal neuronal cells) | fading of the enone band in the presence of glutathione [2] | activation of F9 RARE-lacZ reporter cells (β-galactosidase, X-Gal staining) [3]
1 | CC1=C2C(=CC(C)(C)[C@@H]2O)C(=O)[C@](C)(O)C12CC2 [Compound 1, illudin M] | 50 to 400 | – | – | –
2 | CC1=C(/C=C/C(C)=C/C=C/C(C)=C/C(=O)O[C@@H]2C3=C(C)C4(CC4)[C@@](C)(O)C(=O)C3=CC2(C)C)C(C)(C)CCC1 [Compound 2, illudin M retinoate] | – | developed normally | stabilization of conjugate 2 compared with 1 | concentration-dependent activation

From publication PMC9408991, “Antitumor Effects of a New Retinoate of the Fungal Cytotoxin Illudin M in Brain Tumor Models” (International Journal of Molecular Sciences, 2022)
